# ChEMBL document CHEMBL1201862, “PubChem BioAssay data set” (2004)
#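 A five-concentration, 48-hour dose response in 96-well plates underlies each endpoint, interpolated linearly between surrounding concentrations. The concentration for 50% growth inhibition is given as GI50.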 The source made the active and inactive calls. No stated cut-off is given here; in the data, active = GI50 up to about 1.1 µM and inactive = higher.
# Experiments:
# Assay in all cases: inhibition of tumour cell growth, NCI panel, 48 h
# MCF7 = system: MCF7
# 786-0 = system: 786-0
# MDA-N = system: MDA-N
# HOP-62 = system: HOP-62
# OVCAR-5 = system: OVCAR-5
# KM12 = system: KM12
# HT-29 = system: HT-29
# TK-10 = system: TK-10
# OVCAR-3 = system: OVCAR-3
# SW-620 = system: SW-620
# SK-MEL-5 = system: SK-MEL-5
# UACC-257 = system: UACC-257
# T47D = system: T47D
# SF-268 = system: SF-268
# NCI/ADR-RES = system: NCI/ADR-RES
# UO-31 = system: UO-31
# HCT-116 = system: HCT-116
# DU-145 = system: DU-145
# RXF 393 = system: RXF 393
# M14 = system: M14
# HCC 2998 = system: HCC 2998
# MDA-MB-231 = system: MDA-MB-231
# NCI-H460 = system: NCI-H460
# LOX IMVI = system: LOX IMVI
# MDA-MB-435 = system: MDA-MB-435
# NCI-H226 = system: NCI-H226
# CAKI-1 = system: CAKI-1
# Hs-578T = system: Hs-578T
# SF-539 = system: SF-539
# IGROV-1 = system: IGROV-1
# MOLT-4 = system: MOLT-4
# CCRF-CEM = system: CCRF-CEM
# SF-295 = system: SF-295
# EKVX = system: EKVX
# ACHN = system: ACHN
# NCI-H23 = system: NCI-H23
# OVCAR-4 = system: OVCAR-4
# HOP-92 = system: HOP-92
# SK-MEL-28 = system: SK-MEL-28
# NCI-H522 = system: NCI-H522
# SK-OV-3 = system: SK-OV-3
# SK-MEL-2 = system: SK-MEL-2
# HL-60 = system: HL-60
# SR = system: SR
# A498 = system: A498
# PC-3 = system: PC-3
# HCT-15 = system: HCT-15
# U-251 = system: U-251
# K562 = system: K562
# RPMI-8226 = system: RPMI-8226
# OVCAR-8 = system: OVCAR-8
# A549 = system: A549
# SNB-19 = system: SNB-19
# SN12C = system: SN12C
# SNB-75 = system: SNB-75
# COLO 205 = system: COLO 205
# Malme-3M = system: Malme-3M
# UACC-62 = system: UACC-62
smiles,measurement,setting,value
COc1ccc(/C=C2\Sc3nnc(-c4ccccc4)n3N=C2c2cc(F)c(Cl)cc2Cl)cc1OC,GI50,MCF7,19.8 µM (inactive)
same,GI50,786-0,48.4 µM (inactive)
same,GI50,MDA-N,23.1 µM (inactive)
same,GI50,HOP-62,> 100 µM (inactive)
same,GI50,OVCAR-5,> 100 µM (inactive)
same,GI50,KM12,26.7 µM (inactive)
same,GI50,HT-29,12.1 µM (inactive)
same,GI50,TK-10,> 100 µM (inactive)
same,GI50,OVCAR-3,> 100 µM (inactive)
same,GI50,SW-620,14.2 µM (inactive)
same,GI50,SK-MEL-5,> 100 µM (inactive)
same,GI50,UACC-257,> 100 µM (inactive)
same,GI50,T47D,29.6 µM (inactive)
same,GI50,SF-268,21 µM (inactive)
same,GI50,NCI/ADR-RES,33.1 µM (inactive)
same,GI50,UO-31,31.1 µM (inactive)
same,GI50,HCT-116,6.24 µM (inactive)
same,GI50,DU-145,> 100 µM (inactive)
same,GI50,RXF 393,11.7 µM (inactive)
same,GI50,M14,29.3 µM (inactive)
same,GI50,HCC 2998,14.3 µM (inactive)
same,GI50,MDA-MB-231,59.2 µM (inactive)
same,GI50,NCI-H460,> 100 µM (inactive)
same,GI50,LOX IMVI,> 100 µM (inactive)
same,GI50,MDA-MB-435,13.8 µM (inactive)
same,GI50,NCI-H226,> 100 µM (inactive)
same,GI50,CAKI-1,31 µM (inactive)
same,GI50,Hs-578T,20.6 µM (inactive)
same,GI50,SF-539,> 100 µM (inactive)
same,GI50,IGROV-1,40.4 µM (inactive)
same,GI50,MOLT-4,0.948 µM (active)
same,GI50,CCRF-CEM,4.98 µM (inactive)
same,GI50,SF-295,> 100 µM (inactive)
same,GI50,EKVX,> 100 µM (inactive)
same,GI50,ACHN,> 100 µM (inactive)
same,GI50,NCI-H23,51.2 µM (inactive)
same,GI50,OVCAR-4,18.2 µM (inactive)
same,GI50,HOP-92,37 µM (inactive)
same,GI50,SK-MEL-28,> 100 µM (inactive)
same,GI50,NCI-H522,12.6 µM (inactive)
same,GI50,SK-OV-3,> 100 µM (inactive)
same,GI50,SK-MEL-2,> 100 µM (inactive)
same,GI50,HL-60,0.573 µM (active)
same,GI50,SR,2.14 µM (inactive)
same,GI50,A498,> 100 µM (inactive)
same,GI50,PC-3,66.2 µM (inactive)
same,GI50,HCT-15,19.1 µM
same,GI50,U-251,> 100 µM (inactive)
same,GI50,K562,9.86 µM (inactive)
same,GI50,RPMI-8226,6.04 µM (inactive)
same,GI50,OVCAR-8,48.9 µM (inactive)
OC1C2CCC3C2CC(C(O)(c2ccccc2)c2ccccc2)C13 (configuration not stated),GI50,MCF7,84.5 µM (inactive)
same,GI50,786-0,37.5 µM (inactive)
same,GI50,MDA-N,33.3 µM (inactive)
same,GI50,A549,36.6 µM (inactive)
same,GI50,HOP-62,63.2 µM (inactive)
same,GI50,OVCAR-5,> 100 µM (inactive)
same,GI50,KM12,61.7 µM (inactive)
same,GI50,HT-29,74.5 µM (inactive)
same,GI50,TK-10,73.5 µM (inactive)
same,GI50,OVCAR-3,29.9 µM (inactive)
same,GI50,SW-620,> 100 µM (inactive)
same,GI50,SK-MEL-5,28.6 µM (inactive)
same,GI50,UACC-257,24.6 µM (inactive)
same,GI50,T47D,79.3 µM (inactive)
same,GI50,SF-268,> 100 µM (inactive)
same,GI50,NCI/ADR-RES,36.6 µM (inactive)
same,GI50,UO-31,67.6 µM (inactive)
same,GI50,HCT-116,36.1 µM (inactive)
same,GI50,DU-145,> 100 µM (inactive)
same,GI50,SNB-19,> 100 µM (inactive)
same,GI50,SN12C,21.9 µM (inactive)
same,GI50,RXF 393,34.7 µM (inactive)
same,GI50,M14,65.8 µM (inactive)
same,GI50,HCC 2998,> 100 µM (inactive)
same,GI50,MDA-MB-231,29.6 µM (inactive)
same,GI50,NCI-H460,41.3 µM (inactive)
same,GI50,LOX IMVI,37.8 µM (inactive)
same,GI50,SNB-75,5.47 µM (inactive)
same,GI50,MDA-MB-435,32.6 µM (inactive)
same,GI50,NCI-H226,28.6 µM (inactive)
same,GI50,COLO 205,18.5 µM (inactive)
same,GI50,CAKI-1,40 µM (inactive)
same,GI50,Hs-578T,45.9 µM (inactive)
same,GI50,SF-539,38.3 µM (inactive)
same,GI50,IGROV-1,23.9 µM (inactive)
same,GI50,MOLT-4,35.8 µM (inactive)
same,GI50,CCRF-CEM,29.4 µM (inactive)
same,GI50,SF-295,28 µM (inactive)
same,GI50,EKVX,33.8 µM (inactive)
same,GI50,ACHN,33.7 µM (inactive)
same,GI50,Malme-3M,28.4 µM (inactive)
same,GI50,NCI-H23,44.5 µM (inactive)
same,GI50,OVCAR-4,> 100 µM (inactive)
same,GI50,HOP-92,45.2 µM (inactive)
same,GI50,SK-MEL-28,> 100 µM (inactive)
same,GI50,NCI-H522,34.8 µM (inactive)
same,GI50,SK-OV-3,> 100 µM (inactive)
same,GI50,SK-MEL-2,18.4 µM (inactive)
same,GI50,SR,32.7 µM (inactive)
same,GI50,A498,37 µM (inactive)
same,GI50,PC-3,21.4 µM (inactive)
same,GI50,HCT-15,31.5 µM
same,GI50,U-251,70.3 µM (inactive)
same,GI50,K562,18.2 µM (inactive)
same,GI50,UACC-62,47.5 µM (inactive)
same,GI50,OVCAR-8,93.1 µM (inactive)
